Assay results: patent US10130684B2, “Oral dissolving films for insulin administration, for treating diabetes” (PHARMEDICA LTD., priority 2011, dated 2018)

Test system: cultured human buccal tissue (EpiOral)
Assay: In vitro buccal tissue permeation of insulin solutions with permeation enhancers
Type: in vitro ADME
Description: To enable in vitro study of insulin release, the films were applied onto EpiOral tissues (MatTek) according to the Drug Absorption Protocol (ORL-202 & ORL-606), incorporated herein by reference. EpiOral tissues consist of normal, human-derived epithelial cells, which have been cultured to form multilayered, highly differentiated models of the human buccal phenotypes. EpiOral is a multilayered tissue consisting of an organized basal layer and multiple non-cornified layers analog to native human buccal tissue.
Insulin solution (0.60 mg/mL) was prepared in phosphate buffer (pH 6.8) solution (PBS). The above mentioned potential permeation enhancers were dissolved in the insulin solution to make solutions with desired ratios given in the table below:
Briefly, experiments were conducted in 37° C. incubator with 0.9 mL of PBS in receptor. 3.5 mL of donor solutions (n=4 for each formulation) were placed in the donor compartments. […] were collected from the receptor at time periods of 0.5, 1.0, 2.0, 3.0, 4.0 and 6.0 h, and were later assayed using HPLC.

increase of insulin release compared to the control (without a permeation enhancer) (Brij 35 as permeation enhancer): about 5 times | permeation effectiveness for insulin among the 3 tested compounds (Brij 58, Brij 35, sodium glycocholate compared): highest permeation effectiveness
Substance: polyoxyethylene (35) lauryl ether [Brij 35]
